Laboratory results from patent US20210024483A1, “HETEROCYLCOALKENYL DERIVATIVES USEFUL AS AGONISTS OF THE GPR120 AND / OR GPR40” (Janssen Pharmaceutica NV, priority 2018, published 2021).

How the values were obtained:
[1] = molecular target: T1, Human GPR120 short form (short splice variant, NM_001195755.1) (Homo sapiens, UniProt Q5NUL3); test: Human GPR120 Calcium Flux Assay; type: cell-based; conditions: HEK-293 cells, 4200 cells/well, read-out: Human GPR120 Calcium Flux Assay Procedure B EC50
T1 construct: expressed in transfected cells; host or cells: HEK293
T1 sequence (Q5NUL3 1-361): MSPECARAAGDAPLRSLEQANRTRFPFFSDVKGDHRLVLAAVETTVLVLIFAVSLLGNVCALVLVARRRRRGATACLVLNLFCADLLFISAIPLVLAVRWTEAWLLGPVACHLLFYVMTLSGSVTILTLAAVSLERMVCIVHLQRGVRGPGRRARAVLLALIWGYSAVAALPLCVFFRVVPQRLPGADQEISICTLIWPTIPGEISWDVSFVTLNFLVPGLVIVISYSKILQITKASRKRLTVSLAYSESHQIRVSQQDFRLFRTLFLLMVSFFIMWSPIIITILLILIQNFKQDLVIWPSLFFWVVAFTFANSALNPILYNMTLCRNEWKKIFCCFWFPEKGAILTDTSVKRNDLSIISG
Description: In Vitro Assay: Human GPR120 in Calcium Flux Assay
This in vitro assay serves to assess test compound agonist activity against the short splice variant (SVS with Accession number NM_001195755.1 confirmed by sequencing data) of the GPR120 receptor. The Human Short splice variant #2 (NM_001195755.1) is missing an in-frame coding exon compared to variant 1 (the Human Long splice variant NM_181745.3), resulting in a shorter isoform (GPR120-S) lacking a 16 aa protein segment compared to isoform GPR120-L. The assay platform utilizes HEK-293 cells stably transfected to express the Human GPR120 short form. These cells are first loaded with the Ca^+2 sensitive dye, Fluo-4 NW. Upon stimulation, intracellular released Ca^+2 can bind to the dye and alter its fluorescence intensity. This increase in fluorescence signal, and thus the flux in intracellular [Ca^2+], is detected and quantitated by fluorescence imaging using a FLIPR reader. The effect of the agonist is measured as a function of concentration and used to calculate an EC50 based upon a response curve. […]
In this procedure 4200 cells/well were employed.
A Human GPR120 clone (Genbank accession number NM_001195755.1) was placed into the pcDNA3.1 mammalian expression vector carrying the neomycin resistance gene. A stable mammalian cell was generated by placing the above clone into a HEK293 background. Clonal cells responding to long chain fatty acids had expression levels of GPR120 confirmed by RT-qPCR. Human HEK-GPR120 cells were cultured in Dulbecco's Modified Eagle's Medium (DMEM)/F12 medium supplemented with 10% fetal bovine serum (FBS), 1% L-Glutamine and 1% penicillin/streptomycin and 0.5 mg/ml G-418. Cells were split 2 times a week to keep the cells in the log-phase growth.
In preparation for the assay, HEK cells stably transfected with Human GPR120 (2.5K cells per well in 25 uL growth medium) were seeded into 384-well plates and then incubated overnight (37° C., 5% CO2). The next day, the media was changed to 20 μL assay buffer and the cell starved for 1 h at 37° C. The dye loading solution (2× dye) was prepared using 10 mL assay buffer, 100 μL of 250 mM probenecid, 1 bottle of Component A, and 20 μl of dye in DMSO. Twenty μL of the 2× dye loading buffer was then added to each well. The plates were incubated at 37° C. for 30 min, then at room temperature for an additional 15 minutes, before performing the assay on FLIPR.
The assay was performed on a FLIPR plate reader using the following parameters. Baseline was read for 10 seconds at 1 sec intervals. The program was set to transfer 10 μL of ligand from compound plate to cell plate after baseline reading. Aspiration was executed at: 10 μL/sec speed, 4.6 μL height; Dispensing was executed at: 30 μL/sec speed, 45 μL height. After compound addition, each well was read for 300 sec, with measurements collected at 1 sec intervals.
The kinetic data from the FLIPR was based upon a 5 minute window for data collection. The fluorescence of each sample well was used for individual calculations of a normalized RFU value, which was defined as maximum response minus the minimum response. The normalized fluorescence reading (RFU) was calculated as follows:
The data were fitted to a sigmoidal dose-response curve with a variable Hill slope (<2) using nonlinear regression with GraphPad Prism 5.0 to calculate the EC50 values. The Fitting Equation was: Y=Bottom+(Top−Bottom)/(1+10^((Log EC50−X)*HillSlope)), where X is the log of the concentration and Y is the response.

GPR40 = GPR40 (UniProt O14842); test: GPR40 Calcium Flux Assay; type: cell-based; conditions: transfected HEK293 cells stably expressing human or rat GPR40; species not given
Protocol: Biological Example 3: In Vitro Assay
Compounds were tested in a calcium flux assay using transfected HEK293 cells stably expressing either human GPR40 or rat GPR40. Human GPR40 expressing cells were cultured in DMEM-High Glucose media supplemented with 10% fetal bovine serum, 1×L-Glutamine, 1× Penicillin/Streptomycin and 500 μg/mL G418. Rat GPR40 expressing cells were cultured in DMEM-High Glucose media supplemented with 10% fetal bovine serum and 1 μg/mL puromycin. Cells were plated into poly-D-lysine coated 384-well plates and cultured overnight in a 37° C. humidified tissue culture incubator under 5% CO2/90% O2 atmosphere.
On the day of the experiment, the culture media was replaced with assay buffer (HBSS, 20 mM HEPES, 0.1% BSA) and the cells incubated at 37° C. for 1 h. Calcium-sensitive fluorescent dye (Fluo 8 No-Wash Calcium Dye, ABD Bioquest) was then added and the cells incubated for another 30 min at 37° C. followed by 15 min at room temperature while protected from the light. The cell plate and a plate of diluted compounds of Formula (I) were loaded into a fluorescent plate reader that added compounds onto the cells while measuring the fluorescence intensity of each well. The plate reader recorded fluorescence intensity at 1 second intervals for 8 min and provided the data for analysis in an Excel format. EC50 values were calculated using Prism (GraphPad) software.

C=C(C1=C(COc2ccc(CCC(=O)O)c(C(F)(F)F)c2)COCC1)c1ccc(C(F)(F)F)cc1 [compound 705]
EC50 [1]: > 5000 nM | EC50 (GPR40): 73 nM

O=C(O)CCc1ccc(OCC2=C(C3CCCC3)CCOC2)cc1 [compound 738]
EC50 [1]: 927 nM | EC50 (GPR40): 2680 nM

O=C(O)CCc1ccc(OCC2=C(Cc3ccccc3)CCOC2)cc1Cl [compound 713]
EC50 [1]: > 5000 nM | EC50 (GPR40): 703 nM

O=C(O)CCc1cc(F)c(OCC2=C(C3CCCC3)CCOC2)c(F)c1 [compound 736]
EC50 [1]: 615 nM | EC50 (GPR40): > 10000 nM

Cc1ccc(C2=C(COc3ccc(CCC(=O)O)c(C)c3C)COCC2)cc1F [compound 659]
EC50 [1]: 66 nM | EC50 (GPR40): > 10000 nM

CC(C)CC1=C(COc2c(F)cc(CCC(=O)O)cc2F)COCC1 [compound 733]
EC50 [1]: 1810 nM | EC50 (GPR40): > 10000 nM

C=C(C1=C(COc2ccc(CCC(=O)O)c(C(F)(F)F)c2)COCC1)c1ccccc1Cl [compound 706]
EC50 [1]: > 5000 nM | EC50 (GPR40): 38 nM

Cc1ccc(C2=C(COc3ccc(CCC(=O)O)cc3)CCOC2)cc1F [compound 769]
EC50 [1]: 1090 nM | EC50 (GPR40): > 10000 nM

Cc1c(CCC(=O)O)ccc(OCC2=C(C3CCC3)CCOC2)c1C [compound 724]
EC50 [1]: 275 nM | EC50 (GPR40): > 10000 nM

COc1ccc(CC2=C(COc3ccc(CCC(=O)O)c(C(F)(F)F)c3)COCC2)cc1 [compound 698]
EC50 [1]: > 5000 nM | EC50 (GPR40): 335 nM

Cc1ccc(CC2=C(COc3ccc(CCC(=O)O)cc3)COCC2)cc1 [compound 691]
EC50 [1]: 2400 nM | EC50 (GPR40): 3620 nM

Cc1ccc(CC2=C(COc3ccc(CCC(=O)O)c(C(F)(F)F)c3)COCC2)cc1 [compound 692]
EC50 [1]: > 5000 nM | EC50 (GPR40): 324 nM

CCCCCCC1=C(COc2ccc(CCC(=O)O)c(C(F)(F)F)c2)COCC1 [compound 719]
EC50 [1]: > 5000 nM | EC50 (GPR40): 1020 nM

Cc1ccc(C2=C(COc3ccc(CCC(=O)O)c(C(F)(F)F)c3)COCC2)c(F)c1 [compound 684]
EC50 [1]: 786 nM | EC50 (GPR40): 2700 nM

C=C(C1=C(COc2ccc(CCC(=O)O)cc2)COCC1)c1ccccc1 [compound 699]
EC50 [1]: > 5000 nM | EC50 (GPR40): 1740 nM

COc1ccc(CC2=C(COc3ccc(CCC(=O)O)cc3)COCC2)cc1 [compound 697]
EC50 [1]: > 5000 nM | EC50 (GPR40): ~18900 nM

CC(C)CCC1=C(COc2ccc(CCC(=O)O)c(C(F)(F)F)c2)COCC1 [compound 722]
EC50 [1]: 1190 nM | EC50 (GPR40): 973 nM

CC(C)C1=C(COc2ccc(CCC(=O)O)c(C(F)(F)F)c2)COCC1 [compound 735]
EC50 [1]: 2190 nM | EC50 (GPR40): 492 nM

O=C(O)CCc1ccc(OCC2=C(C3CCCC3)COC2)cc1 [compound 632]
EC50 [1]: 422 nM | EC50 (GPR40): 2580 nM

O=C(O)CCc1ccc(OCC2=C(Cc3ccc(Cl)cc3)CCOC2)cc1C(F)(F)F [compound 696]
EC50 [1]: > 5000 nM | EC50 (GPR40): 218 nM

C=C(C1=C(COc2ccc(CCC(=O)O)cc2)COCC1)c1ccc(F)cc1 [compound 702]
EC50 [1]: > 5000 nM | EC50 (GPR40): 1560 nM

Cc1ccc(C2=C(COc3ccc(CCC(=O)O)c(C(F)(F)F)c3)COCC2)cc1F [compound 685]
EC50 [1]: 970 nM | EC50 (GPR40): 829 nM

O=C(O)CCc1ccc(OCC2=C(C3CCCC3)COCC2)cc1 [compound 764]
EC50 [1]: 455 nM | EC50 (GPR40): 1440 nM

O=C(O)CCc1ccc(OCC2=C(C3CCCC3)CCOC2)cc1Cl [compound 727]
EC50 [1]: 1600 nM | EC50 (GPR40): 386 nM

O=C(O)CCc1cc(F)c(OCC2=C(Cc3ccccc3)CCOC2)c(F)c1 [compound 714]
EC50 [1]: 1930 nM | EC50 (GPR40): > 10000 nM

CC(C1=C(COc2ccc(CCC(=O)O)c(C(F)(F)F)c2)COCC1)c1ccccc1 (centres unmarked) [compound 701]
EC50 [1]: > 5000 nM | EC50 (GPR40): 145 nM

C=C(C1=C(COc2ccc(CCC(=O)O)cc2F)COCC1)c1ccccc1 [compound 723]
EC50 [1]: > 5000 nM | EC50 (GPR40): > 10000 nM

CCCCC1=C(COc2ccc(CCC(=O)O)c(C(F)(F)F)c2)COCC1 [compound 707]
EC50 [1]: 829 nM | EC50 (GPR40): 326 nM
